How the values were obtained:
[1] = system: CD8+ T cells; test: CD8+ T cell viability; assay type: cell-based; conditions: ibrutinib effect at higher doses
Protocol: Total T cells were plated on anti-TCR and anti-CD28 coated wells in the presence of both BTK inhibitors. Neutral culture conditions were used that will not polarize T cells to a helper lineage. […] Statistical significance was calculated using the Mann Whitney T-test.

[2] = system: GPVI platelet aggregation; test: GPVI (convulxin) platelet aggregation; assay type: cell-based, human
[3] = system: Raji cells; test: Rituximab ADCC chromium release assay, Raji targets; assay type: cell-based, human; conditions: 1 μM, healthy donor NK cells
Protocol: All in vitro experiments were performed in triplicate.
ADCC assays were performed as follows. Briefly, target cells (Raji or primary CLL) were labeled by incubation at 37° C. with 100 μCi ^51Cr for 4 hours prior to co-culture with NK cells. Cells were washed, enumerated, and then added in triplicate to prepared 96-well plates containing treated NK cells at an effector:target (E:T) ratio of 25:1. […] Cultures were incubated at 37° C. for 4 hours, and then centrifuged. Supernatants were harvested and ^51Cr release was measured by liquid scintillation counting. All experiments were performed in triplicate.

[4] = system: Th17 cells and Treg; test: Th17 and Treg development from CD4+ T cells; assay type: cell-based
Protocol: Enriched CD4^+ T cells are plated on 24-well culture dishes that have been precoated 2 hr with 250 μL anti-TCRβ (0.5 μg/mL) plus anti-CD28 (5 μg/mL) at 37° C. in PBS. The cells are then supplemented with media containing BTK inhibitors along with the skewing cytokines as indicated in the following. The Th17 and Treg cultures are grown for 4 days before analysis. The cells are maintained for an additional 3 days with skewing cytokines (Th17; 20 ng/mL IL-6, 0.5 ng/mL TGF-β, 5 μg/mL IL-4, 5 μg/mL IFN-γ and Treg; 0.5 ng/mL TGF-β, 5 μg/mL IL-4, […] IFN-γ) and are supplemented with IL2 as a growth factor.

[5] = monotherapy, dose levels through 840 mg; cited from earlier work
[6] = system: CD8+ T cell function; test: Cytotoxic T cell (CTL) assay; assay type: cell-based; conditions: relative to vehicle; for CD8+ T cell function as % cytotoxicity: 500 nM
Protocol: Without being bound by any theory, CD8^+ T cells have two primary effector functions: (1) produce large amounts of IFN-γ (which activates macrophages), and (2) cytolytic activity. […] The targets were B lymphoblasts from lipopolysaccharide (LPS) treated cultures. The assay was performed by incubating different ratios of effectors:targets for 4 hours.

[7] = system: BCR activation markers CD69 and CD86; test: In vivo potency: BCR activation markers after gavage; conditions: mice, 3 hours post-dose, IgM stimulation, compared with Formula (10)
Protocol: Mice were gavaged at increasing drug concentration and sacrificed at one time point (3 hours post-dose). BCR is stimulated with IgM and the expression of activation markers CD69 and CD86 are monitored by flow cytometry to determine EC50 values.
CD86 and CD69 are cell surface proteins that are BCR activation markers. […] BCR was stimulated with IgM and the expression of activation marker CD69 and CD86 are monitored by flow cytometry to determine EC50 values.

[8] = GLP functional observation battery; assay type: in vivo; conditions: rats, doses through 300 mg/kg
Source text: (§1) Formula (2) was well tolerated in standard in vivo Good Laboratory Practices (GLP) studies of pharmacologic safety.

[9] = system: ID8 ovarian cancer; test: ID8 syngeneic orthotropic ovarian cancer model; assay type: in vivo, mice; conditions: 15 mg/kg/BID orally
Source text: Human ovarian cancer models, including the ID8 syngeneic orthotropic ovarian cancer model and other animal models, are described in Fong and Kakar, J. Ovarian Res. 2009, 2, 12; Greenaway, et al., Gynecol. Oncol. 2008, 108, 385-94; Urzua, et al., Tumour Biol. 2005, 26, 236-44; Janat-Amsbury, et al., Anticancer Res. 2006, 26, 3223-28; Janat-Amsbury, et al., Anticancer Res. 2006, 26, 2785-89. […] The results of the study are shown in FIG. 4, FIG. 5, FIG. 6, FIG. 7, FIG. 8, FIG. 9, FIG. 10, and FIG. 11.

[10] = system: human platelet-mediated thrombosis; test: Laser-induced thrombus formation with human platelets in VWF HA1 mice; conditions: in vivo
Protocol: Injury to the vessel wall of arterioles ([…] diameter) was performed using a pulsed nitrogen dye laser (440 nm, Photonic Instruments) applied through a 20× water-immersion Olympus objective (LUMPlanF1, 0.5 numerical aperature (NA)) of a Zeiss Axiotech vario microscope. […] The extent of thrombus formation was assessed for 2 minutes after injury and the area (μm^2) of coverage determined (Image IQ, Andor Technology).
The BTK inhibitor-treated human platelets were fluorescently labeled and infused continuously through a catheter inserted into the femoral artery.

[11] = In vitro metabolism in hepatocytes with 14C-labeled drug; assay type: in vitro ADME, and human; conditions: mouse, rat, dog, rabbit, monkey, human hepatocytes
[12] = Cardiovascular function study in awake telemeterized dogs; assay type: in vivo, male beagle dogs; conditions: single doses through 30 mg/kg
Source text: as §1

[13] = target: T1, BTK (Mus musculus, UniProt P35991); test: Molecular probe assay of BTK occupancy in MDSCs of tumor bearing PDA mice; assay type: in vivo; conditions: 15 mg/kg BID, Day 8, 4 hours post dose
T1 construct: endogenous in cells; host or cells: granulocytic and monocytic MDSCs from tumour-bearing PDA (KPC) mice dosed in vivo
Source text: A molecular probe assay was used to calculate the percent irreversible occupancy of total BTK.

[14] = system: relapsed/refractory CLL; test: Clinical study in relapsed/refractory CLL: efficacy; assay type: in vivo, human; conditions: Kaplan-Meier, p-value 0.0206
Protocol: This study is a multicenter, open-label, nonrandomized, sequential group, dose escalation study. The following dose cohorts will be evaluated:
The investigator rates the subject's response to treatment based on recent guidelines for CLL, as given in Hallek, et al., Blood 2008, 111, 5446-56, and for SLL, as given in Cheson, et al., J. Clin. Oncol. 2007, 25, 579-586.
The analysis of efficacy parameters was performed as follows. The point estimate of the overall response rate will be calculated for the PP analysis set. The corresponding 95% confidence interval also will be derived. The duration of overall response is measured from the time measurement criteria are met for CR or PR (whichever is first recorded) until the first date that recurrent or progressive disease is objectively documented (taking as reference for progressive disease the smallest measurements recorded since the treatment started). […] Progression-free survival is measured from the time of first study drug administration until the first date that recurrent or progressive disease is objectively documented (taking as reference for progressive disease the smallest measurements recorded since the treatment started). […]
The study scheme is a seqential cohort escalation. […] The dose level for Cohort 6 will be determined based on the safety and efficacy of Cohorts 1 to 5, and will not exceed 900 mg/day. […]

[15] = system: NK cells (CD56+/CD107a+); test: Whole blood NK cell degranulation with obinutuzumab-opsonised MEC-1 cells; assay type: cell-based, human; conditions: 1 h pretreatment, obinutuzumab 1 μg/mL, 4 h
Protocol: Degranulation in whole blood was performed as follows. […] Exponentially growing cells were used. […] A white blood cell (WBC) count of whole blood was performed. […] The ibrutinib control and two blinded BTK inhibitors were diluted in X-VIVO 15 serum-free hematopoietic cell medium (Lonza Group, Ltd.) to concentrations of 200 μM, 20 M and 2 μM. 170 μL aliquots of unmanipulated whole blood were incubated with 10 μL BTK inhibitors or X-VIVO 15 medium for one hour into a plate. […] The samples were placed in a 5% CO2 incubator for 4 hours at 37° C.
After 4 hours, the samples were mixed gently and 50 μL aliquots were removed from each well and placed in fluorescence-activated cell sorting (FACS) test tubes. A 20 μL aliquot of anti-CD56-APC antibody and anti-CD107a-PE antibody was added. The samples were incubated for 20 minutes at room temperature in the dark. An aliquot of 2 mL of FACS lysing solution (BD Biosceinces) was added. The samples were again incubated for 5 minutes, and then centrifuged at 2000 rpm for 5 minutes. Supernatant was discarded and the cell pellet was resuspended in 500 μL of PBS. The samples were analyzed on the flow cytometer for CD107a^+ NK cells (CD56^+).

[16] = system: NSCLC (KrasLA2); test: KrasLA2 NSCLC genetic tumor model; assay type: in vivo, mice; conditions: 15 mg/kg
Source text: The model is designed to have sporadic expression in single cells of G12D mutant Kras off its own promoter triggered by spontaneous intrachromosomal recombination. Johnson, et al. Nature 2001, 410, 1111-16. While the mutant Kras protein is expressed in a few cells in all tissues, tumor development is seen only in the lung at high penetrance.

[17] = system: 80 known pharmacologic targets such as G-protein-coupled receptors, nuclear receptors, proteases, and ion channels; test: Binding assays with 80 known pharmacologic targets; conditions: screened at 10 μM
Source text: as §1

T1 sequence (P35991 whole entry): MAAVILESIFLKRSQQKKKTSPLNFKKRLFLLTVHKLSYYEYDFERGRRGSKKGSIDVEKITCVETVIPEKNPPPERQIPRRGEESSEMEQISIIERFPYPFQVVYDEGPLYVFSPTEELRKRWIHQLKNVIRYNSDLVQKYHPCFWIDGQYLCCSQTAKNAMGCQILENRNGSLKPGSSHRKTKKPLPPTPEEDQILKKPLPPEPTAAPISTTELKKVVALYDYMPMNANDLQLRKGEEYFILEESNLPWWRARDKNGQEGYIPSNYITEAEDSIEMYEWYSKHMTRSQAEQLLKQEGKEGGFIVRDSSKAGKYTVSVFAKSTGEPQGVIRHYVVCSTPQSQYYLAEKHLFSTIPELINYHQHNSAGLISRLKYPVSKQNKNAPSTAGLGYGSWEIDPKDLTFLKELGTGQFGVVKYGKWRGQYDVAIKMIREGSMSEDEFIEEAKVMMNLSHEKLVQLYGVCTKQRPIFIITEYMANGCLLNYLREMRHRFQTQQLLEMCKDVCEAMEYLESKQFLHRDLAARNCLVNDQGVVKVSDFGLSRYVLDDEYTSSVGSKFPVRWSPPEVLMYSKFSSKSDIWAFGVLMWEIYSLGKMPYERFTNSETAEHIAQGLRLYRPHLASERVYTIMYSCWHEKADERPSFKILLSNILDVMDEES

## C=CC(=O)N1CCC[C@@H](n2nc(-c3ccc(Oc4ccccc4)cc3)c3c(N)ncnc32)C1 [Formula (10), reference compound]
[1]
  effect on CD8+ T cell viability: strongly affects
[2]
  effect on GPVI platelet aggregation: significantly inhibits
[3]
  effect on antibody-dependent lysis of rituximab-coated Raji cells: strongly inhibited
[4]
  effect on T helper 17 (Th17) cells: strongly inhibits
  effect on regulatory T cell (Treg) development: strongly increases
[5]
  maximum tolerated dose: No maximum tolerated dose (MTD) was apparent
[6]
  CD8+ T cell function as % cytotoxicity: affects
  CD8+ T cell function as IFN-γ level: affects

## CC#CC(=O)N1CCC[C@H]1c1nc(-c2ccc(C(=O)Nc3ccccn3)cc2)c2c(N)nccn12 [Formula (2)]
[7]
  in vivo potency at inhibiting expression of activation markers CD69 and CD86: more potent
[8]
  neurobehavioral effects and body temperature: no adverse effects
[9]
  CD8+ T cells: increase
[9]; tumor-bearing mice
  immunosuppressive B cells, including Bregs: significant reduction
[10]
  effect on human platelet-mediated thrombus formation: no significant effect
[11]
  metabolites found in hepatocytes: two mono-oxidized metabolites and a glutathione conjugate
[1]
  effect on CD8+ T cell viability: no effect
[12]
  body temperature, cardiovascular and ECG (including QT interval) parameters: no meaningful changes
[13]
  irreversible BTK occupancy in granulocytic and monocytic MDSCs: Complete BTK occupancy
[14]
  progression-free survival versus ibrutinib-treated patients: improvement in survival
[2]
  effect on GPVI platelet aggregation: does not
[4]
  effect on T helper 17 (Th17) cells: no adverse effect
  effect on regulatory T cell (Treg) development: no effect
Grade 1/2, All (N = 44)
  treatment-related adverse event: Headache: 7 (16) n (%)
Grade 1, All (N = 44)
  treatment-related adverse event: Diarrhea: 4 (9) n (%)
  treatment-related adverse event: Increased tendency to bruise: 6 (14) n (%)
  treatment-related adverse event: Petechiae: 3 (7) n (%)
relapsed/refractory CLL
  dose-limiting toxicities (DLTs): No DLTs
  grade of adverse events observed: only grade 1 AEs
  lymphocytosis: lack of lymphocytosis
  treatment-related serious adverse events (SAEs): No treatment-related serious adverse events
[15]
  reduction of obinutuzumab-stimulated NK degranulation: minimal effect
[16]
  tumor volumes versus vehicle: significant decrease
[17]
  activity in binding assays with 80 pharmacologic targets: significant activity only against the A3 adenosine receptor
[6]
  CD8+ T cell function as % cytotoxicity: no effect
  CD8+ T cell function as IFN-γ level: no effect
